Measurements: patent US6380198B1 (Laboratoire Medidom S.A., priority 1997, dated 2002)

Tests used:
σ-1 receptors = target: T1, σ-1 receptors (Oryctolagus cuniculus, UniProt G1SD54); assay: [3H](+)-pentazocine receptor binding and competitive binding on irido-ciliary body membranes; set-up: species or system rabbit (New Zealand albino)
T1 construct: cell membranes obtained from the irido-ciliary body complex; from tissue; host or cells: rabbit irido-ciliary body, P2 membrane fraction
Source text: In order to identify the presence of a receptor sites in the eye the technique of “receptor binding” has been exploited. The latter has been carried out on cell membranes obtained from the irido-ciliary body complex. The irido-ciliary body complex had been explanted, after sacrifice, from male albino rabbits of the New Zealand strain. The tissue was homogenised in buffer and a fraction rich in cell membrane proteins was isolated, obtained by centrifugation. […] Aliquots of the said fraction of the homogenate containing 300 μg of total proteins were incubated with scalar amounts of [^3H](+)-pentazocine (which is used, for experimental purposes only, as a a ligand). The reaction was carried out at 37° C. for 150 minutes and then, after filtering, the radioactivity left on the filters was measured by liquid scintillation.

intraocular pressure = assay: Intraocular pressure in New Zealand albino rabbits after instillation of a σ ligand; type: in vivo, rabbit (New Zealand albino); details: 1% preparation, 50 μl in right conjunctival fornix; 60 minutes after instillation; p<0.01
Description: A 1% preparation of NANM was administered (50 μl) in the conjunctival fornix of the right eye of male albino rabbits of the New Zealand strain, after measuring the (baseline) intraocular pressure.

T1 sequence (G1SD54 1-223): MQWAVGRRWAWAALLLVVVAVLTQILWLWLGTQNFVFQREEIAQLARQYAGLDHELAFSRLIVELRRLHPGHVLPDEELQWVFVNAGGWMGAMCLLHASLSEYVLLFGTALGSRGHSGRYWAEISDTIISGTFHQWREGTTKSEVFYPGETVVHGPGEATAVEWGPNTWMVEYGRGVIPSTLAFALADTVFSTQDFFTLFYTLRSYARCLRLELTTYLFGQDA

## C=CCN1CC[C@@]2(C)c3cc(O)ccc3C[C@@H]1[C@@H]2C [NANM, (+)-N-allil-nor-meth-azocine]
σ-1 receptors; competitive binding
  Classes of σ receptor sites bound (Hill coefficient analysis): interacts with one only class
σ-1 receptors; constant amount of radioligand, scalar amounts of competitor
  Displacement of [3H](+)-pentazocine in competitive binding: shift the radioactive ligands from the receptor sites
Intraocular pressure
  Intraocular pressure versus vehicle: significantly reduced
